Results taken from article PMC10544575, “Inhibitory mechanism of vortioxetine on CYP450 enzymes in human and rat liver microsomes” (Frontiers in Pharmacology, 2023).

Legend:
Assay type in all cases: in vitro ADME
Design in all cases: 0.20 mg/mL HLMs or 0.20 mg/mL RLMs; from tissue; host or cells: human liver microsomes
CYP3A4 = CYP3A4 (Homo sapiens, UniProt P08684); assay: IC50-shift experiment, CYP3A4 in HLMs; details: for IC50: midazolam 4 μM
Method: (§1) The components of the incubation system were as follows: 0.20 mg/mL HLMs or 0.20 mg/mL RLMs, 0.1 M Tris-HCl, vortioxetine, and the probe substrates of each enzyme. In the study of Km’s (Michaelis–Menten constant) experiment, midazolam (1, 2, 5, 10, 20, 50 and 100 μM in HLMs and RLMs) corresponded to CYP3A4/3A; bupropion (10, 20, 50, 100, 200, 500, 1,000 and 2000 μM in HLMs; 1, 2, 5, 10, 20, 50, 100 and 200 μM in RLMs) corresponded to CYP2B6/2B; amodiaquine (5, 10, 20, 50, 100 and 200 μM in HLMs; 10, 20, 50, 100, 200, 500 μM in RLMs) corresponded to CYP2C8/CYP2C-1; losartan (1, 2, 5, 10, 20, 50, 100, 200 μM in HLMs; 10, 20, 50, 100, 200, 500 and 1,000 μM in RLMs) corresponded to CYP2C9/CYP2C-2; mephenytoin (20, 50, 100, 200, 500 and 1,000 μM in HLMs; 5, 10, 20, 50, 100, 200, 500 and 1,000 μM in RLMs) corresponded to CYP2C19/CYP2C-3; and dextromethorphan (1, 2, 5, 10, 20, 50 and 100 μM in HLMs and RLMs) corresponded to CYP2D6/CYP2D. After 5.0 min of preincubation in the shaking water bath, the reaction was started with the addition of 1.0 mM NADPH. The incubated temperature at 37°C for 30 min. After the incubation, the enzyme reaction was stopped by cooling at −80°C, and 200 μL of acetonitrile and 20 μL of internal standard diazepam (200 ng/mL) were added for protein precipitation. […]
(§2) IC50-shift was used to investigate whether the drug produced time-dependent inhibition (TDI) of the enzyme. […] During the experiment, the individual substrates midazolam (4 μM), bupropion (40 μM), amodiaquine (3 μM), losartan (8 μM), mephenytoin (90 μM), and dextromethorphan (10 μM) were determined with vortioxetine IC50-shift in HLMs. […]
(§3) All experiments results were detected by UPLC-MS/MS, which equipped with a Waters Acquity UPLC system (Milford, MA, United States) and a Waters Xevo TQ-S triple quadrupole tandem mass spectrometer with an electrospray ionization source (Milford, MA, United States). […]
(§4) IC50 values and enzyme kinetic parameters were calculated by Graphpad Prism 6.0 (GraphPad software Inc., CA, United States). […] Data for each experiment were expressed as mean ± SD (n = 3).

CYP2C9 = CYP2C9 (Homo sapiens, UniProt P11712); assay: IC50-shift experiment, CYP2C9 in HLMs; details: for IC50: losartan 8 μM
Sequence of CYP2C9 (P11712 whole entry): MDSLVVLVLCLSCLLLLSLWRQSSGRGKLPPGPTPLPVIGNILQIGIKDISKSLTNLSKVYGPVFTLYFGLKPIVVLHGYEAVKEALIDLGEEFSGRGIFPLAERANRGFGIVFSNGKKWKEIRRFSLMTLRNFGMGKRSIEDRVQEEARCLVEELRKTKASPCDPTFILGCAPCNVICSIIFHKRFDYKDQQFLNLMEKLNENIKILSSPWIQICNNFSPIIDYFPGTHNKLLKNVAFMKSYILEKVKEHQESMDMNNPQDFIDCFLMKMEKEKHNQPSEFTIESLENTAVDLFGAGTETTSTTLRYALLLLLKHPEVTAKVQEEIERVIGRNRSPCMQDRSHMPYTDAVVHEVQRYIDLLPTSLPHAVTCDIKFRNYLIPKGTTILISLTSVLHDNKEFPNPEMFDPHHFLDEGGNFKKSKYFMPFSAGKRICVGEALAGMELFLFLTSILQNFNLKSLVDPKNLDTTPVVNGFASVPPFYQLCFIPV
Method: as §1, §2, §3, §4

CYP2C8 = target: T1, CYP2C8 (Homo sapiens, UniProt P10632); assay: Reversible inhibition kinetics (Lineweaver-Burk), CYP2C8 in HLMs
T1 sequence (P10632 1-490): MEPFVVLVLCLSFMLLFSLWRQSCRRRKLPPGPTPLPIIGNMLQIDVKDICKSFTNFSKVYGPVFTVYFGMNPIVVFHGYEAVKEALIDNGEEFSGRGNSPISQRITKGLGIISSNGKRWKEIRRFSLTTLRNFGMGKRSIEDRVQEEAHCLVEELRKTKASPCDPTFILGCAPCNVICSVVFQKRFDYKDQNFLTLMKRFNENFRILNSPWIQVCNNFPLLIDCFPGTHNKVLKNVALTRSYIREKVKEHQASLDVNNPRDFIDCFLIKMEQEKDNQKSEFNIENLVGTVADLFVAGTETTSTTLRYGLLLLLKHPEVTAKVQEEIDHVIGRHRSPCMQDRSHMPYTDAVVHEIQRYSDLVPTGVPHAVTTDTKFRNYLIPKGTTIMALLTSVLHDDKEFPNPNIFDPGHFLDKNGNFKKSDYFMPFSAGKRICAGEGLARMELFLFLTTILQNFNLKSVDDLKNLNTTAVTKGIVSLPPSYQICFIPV
Method: The components of the incubation system were as follows: 0.20 mg/mL HLMs or 0.20 mg/mL RLMs, 0.1 M Tris-HCl, vortioxetine, and the probe substrates of each enzyme. In the study of Km’s (Michaelis–Menten constant) experiment, midazolam (1, 2, 5, 10, 20, 50 and 100 μM in HLMs and RLMs) corresponded to CYP3A4/3A; bupropion (10, 20, 50, 100, 200, 500, 1,000 and 2000 μM in HLMs; 1, 2, 5, 10, 20, 50, 100 and 200 μM in RLMs) corresponded to CYP2B6/2B; amodiaquine (5, 10, 20, 50, 100 and 200 μM in HLMs; 10, 20, 50, 100, 200, 500 μM in RLMs) corresponded to CYP2C8/CYP2C-1; losartan (1, 2, 5, 10, 20, 50, 100, 200 μM in HLMs; 10, 20, 50, 100, 200, 500 and 1,000 μM in RLMs) corresponded to CYP2C9/CYP2C-2; mephenytoin (20, 50, 100, 200, 500 and 1,000 μM in HLMs; 5, 10, 20, 50, 100, 200, 500 and 1,000 μM in RLMs) corresponded to CYP2C19/CYP2C-3; and dextromethorphan (1, 2, 5, 10, 20, 50 and 100 μM in HLMs and RLMs) corresponded to CYP2D6/CYP2D. After 5.0 min of preincubation in the shaking water bath, the reaction was started with the addition of 1.0 mM NADPH. The incubated temperature at 37°C for 30 min. After the incubation, the enzyme reaction was stopped by cooling at −80°C, and 200 μL of acetonitrile and 20 μL of internal standard diazepam (200 ng/mL) were added for protein precipitation. The solution was fully vortexed and centrifuged at 13,000 × rpm for 10 min, and the supernatant was collected for data analysis by UPLC-MS/MS.
The inhibitory mechanism of the inhibitor on the enzyme was generally used by different concentrations of the inhibitor against different concentrations of the probe substrate. The concentrations of the inhibitor and the concentrations of probe substrates in the experiment were estimated based on IC50 and Km values, respectively.
In HLMs, the concentrations of the substrates midazolam, bupropion, amodiaquine, losartan, mephenytoin, and dextromethorphan were 1, 2, 4, 8 μM; 10, 20, 40, 80 μM; 0.8, 1.5, 3, 6 μM; 2, 4, 8, 16 μM; 20, 45, 90, 180 μM; 2.5, 5, 10, 20 μM, respectively. Corresponding to the concentration of vortioxetine were 2, 4, 9, 18 μM; 2, 4, 8, 16 μM; 4, 8, 15, 30 μM; 5, 10, 25, 50 μM; 0.6, 1.2, 2.5, 5 μM; 4.5, 9, 18, 36 μM, respectively.
All experiments results were detected by UPLC-MS/MS, which equipped with a Waters Acquity UPLC system (Milford, MA, United States) and a Waters Xevo TQ-S triple quadrupole tandem mass spectrometer with an electrospray ionization source (Milford, MA, United States). The chromatographic separation was performed on a Waters ACQUITY UPLC BEH C18 column (2.1 × 50 mm, 1.7 μm, Waters Corp.) at 40°C. The mobile phase was consisted of acetonitrile (A) and 0.1% formic acid in water (B). The gradient elution at a flow rate of 0.4 mL/min was conducted as follows: 0–0.5 min, 10% A; 0.5–1.0 min, 10%–90% A; 1.0–2.0 min, 90% A; 2.0–2.1 min, 90%–10% A, and 2.1–3.0 min, 10% A. The relevant analysis parameters were shown in Table 1.
IC50 values and enzyme kinetic parameters were calculated by Graphpad Prism 6.0 (GraphPad software Inc., CA, United States). Lineweaver-Burk Plot was used to determine inhibitor patterns. Dixon plots of Ki values were obtained from the slope of the nonlinear regression line in the Lineweaver-Burk plot as a function of different inhibitor concentrations, while secondary plots for αKi were obtained from the y-intercept of the nonlinear regression line in Lineweaver-Burk Plot versus concentration of different inhibitors. Data for each experiment were expressed as mean ± SD (n = 3).

[1] = 30 min preincubation with 1.0 mM NADPH
[2] = 30 min preincubation without NADPH

Sequence of CYP3A4 (P08684 whole entry): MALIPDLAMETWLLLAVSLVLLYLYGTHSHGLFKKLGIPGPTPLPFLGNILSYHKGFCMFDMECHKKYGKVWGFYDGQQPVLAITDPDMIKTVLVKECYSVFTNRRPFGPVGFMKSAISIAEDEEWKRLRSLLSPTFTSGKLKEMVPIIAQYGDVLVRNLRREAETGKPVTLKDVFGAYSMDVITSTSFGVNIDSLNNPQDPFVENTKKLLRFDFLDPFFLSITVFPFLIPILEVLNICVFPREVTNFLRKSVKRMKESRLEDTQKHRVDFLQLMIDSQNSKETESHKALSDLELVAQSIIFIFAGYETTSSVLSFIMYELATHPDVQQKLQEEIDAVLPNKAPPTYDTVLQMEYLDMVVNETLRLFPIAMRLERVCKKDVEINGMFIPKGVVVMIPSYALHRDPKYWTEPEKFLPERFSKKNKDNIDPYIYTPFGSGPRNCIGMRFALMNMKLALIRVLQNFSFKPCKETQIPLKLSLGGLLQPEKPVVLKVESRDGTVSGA

Cc1ccc(Sc2ccccc2N2CCNCC2)c(C)c1 [vortioxetine]
IC50 (CYP3A4; [1]): 13.7 µM | IC50 (CYP3A4; [2]): 15.5 µM | IC50 shift at 30 min (CYP3A4; human, human liver microsomes, probe midazolam (4 μM), ratio IC50 (−) NADPH to IC50 (+) NADPH, read-out: IC50 fold shift): 1.14 | IC50 (CYP2C9; [1]): 16.7 µM | IC50 (CYP2C9; [2]): 18.6 µM | IC50 shift at 30 min (CYP2C9; human, human liver microsomes, probe losartan (8 μM), ratio IC50 (−) NADPH to IC50 (+) NADPH, read-out: IC50 fold shift): 1.11 | Ki (CYP2C8; amodiaquine): 6.96 µM | α (CYP2C8; amodiaquine): 1.94 | Inhibition type (CYP2C8; amodiaquine, Lineweaver-Burk plot): noncompetitive inhibition | αKi (CYP2C8; amodiaquine, secondary plot of y-intercepts): 13.48 µM | Ki at 30 min (CYP2C8; human, human liver microsomes, probe amodiaquine): 2960 nM
